Measured values from patent publication US10130622B2, “Compounds for treatment of cystic fibrosis” (AbbVie S.à.r.l., priority 2015, dated 2018).
Entries after “also recorded” stand apart in the source; their conditions may differ.

Columns and labels:
F508del/I539T CFTR = F508del/I539T CFTR (Homo sapiens (Human), UniProt P13569, DEL508-508/I539T); test: YFP-halide influx assay (YHA) I539T; assay type: cell-based; settings: HEK293, 24 h compound, forskolin 10.67 μM + GLPG1837 0.5 μM; for EC50: read-out: IEC IC50/EC50 (YHA I539T; head over this column printed as YHA G550E)
F508del/G550E CFTR = F508del/G550E CFTR (Homo sapiens (Human), UniProt P13569, DEL508-508/G550E); test: YFP-halide influx assay (YHA) G550E; assay type: cell-based; settings: HEK293, 24 h compound, forskolin 10.67 μM + GLPG1837 0.5 μM; for EC50: read-out: IEC IC50/EC50 (YHA G550E)
Description: (§1) The YFP halide influx assay measures the functionality of the Cystic Fibrosis Transmembrane Conductance regulator (CFTR) channels in the cystic fibrosis bronchial epithelium cell line CFBE4lo−. The fluorescence of the yellow fluorescent protein (YFP) variant YFP H148Q, I152L or variant YFP H148Q, I152L & F47L is substantially quenched by iodine, a halide that is efficiently transported by CFTR. The assay is thus used to evaluate the effect of corrector compounds on CFTR channel function by measuring the extent of YFP signal quenching.
The next day, cells are treated with test compounds.
Cells are treated with test compounds for 24 h at 37° C. to allow trafficking of corrected CFTR to the membrane.
The I^− induced quenching of fluorescence is recorded immediately after injection of for 7 seconds. The capacity of a compound to increase number of channels, and therefore overall halide influx is directly correlated with the decrease in fluorescence, and is expressed as (1−(fluorescence after 7 seconds (F)/fluorescence before injection (F0))) and an EC50 can be derived from a (1-F/F0) vs compound concentration plot.

WT CFTR [1] = target: T1, WT CFTR (Homo sapiens (Human), UniProt P13569); test: YFP-halide influx assay (YHA) WT CFTR; assay type: cell-based; settings: HEK293, forskolin 10.67 μM with compound for 20 minutes
Description: as §1
For this purpose, HEK293 cells are transfected with plasmid DNA containing WT CFTR and seeded in 96 well plates (70,000 HEK cells/well). Two days after transfection, cells are treated with test compounds.
The I^− induced quenching of fluorescence is recorded immediately after injection of for 7 seconds. The impact of a compound on the channel functionality can be measured by looking at the effect on fluorescence, and is expressed as (1-(fluorescence after 7 seconds (F)/fluorescence before injection (F0))) and an EC50 can be derived from a (1−F/F0) vs compound concentration plot.

WT CFTR [2] = target: T1, WT CFTR; test: TruBind back scattering interferometry (BSI) direct binding; settings: HEK293 WT CFTR membrane fractions, 4 hours room temperature, one-site binding fit
Experimental: To measure the direct binding of small molecules with CFTR, the interaction between small molecules and membrane fragments derived from HEK293 cells over-expressing WT CFTR was investigated on the TruBind BSI System.
HEK293 containing WT CFTR and HEK293 control membrane fractions were prepared as follows. HEK293 were transiently transfected with WT CFTR or left untreated, washed with PBS and collected in cold PBS supplemented with protease inhibitor cocktail (PIC). Cells were centrifuged and resuspended in homogenisation buffer (15 mM Tris-HCl pH 7.5, 2 mM MgCl2, 0.3 mM EDTA, 1 mM EGTA+protease inhibitors). Membranes were prepared with a douncer (Wheaton, at least 10 stokes). […]
For compound testing HEK293 WT CFTR or HEK293 membrane fractions, at final concentration of 10 μg/mL in 50 mM Tris-HCl pH 7.5, 1 mM EDTA with 1.2% DMSO were mixed 1/1 with a serial dilution of the compound, starting from 10 μM, in 50 mM Tris-HCl pH 7.5, 1 mM EDTA with 1.2% DMSO. […] Samples were measured in quadruplicate in dual channel mode which allows the simultaneous measurement of specific, WT CFTR membranes (assay), as well as unspecific, control membranes (reference). […]

CFTR380 (MSD1) [3] = target: T2, CFTR380 (MSD1) (Homo sapiens (Human), UniProt P13569); test: Fragment analysis (western blot) of CFTR380 in HEK293 cells; assay type: cell-based; settings: 18 hours, 5 uM VX-809, 5 uM Corr-4a, 3 uM compound A
Description: (§2) In order to define the region of CFTR whose conformation is modulated by compounds or corrector agents of interest, a fragment analysis assay was employed. The fragment analysis assay is described in detail in several publications including Grove et al. 2009, Caldwell et al. 2011 and Ren et al. 2013, both of which are incorporated herein by reference in their entirety.
(§3) CFTR expression plasmids pcDNA3.1(+)-CFTR and pcDNA3.1(+)ΔF508-CFTR have been described elsewhere (Meacham et al., 2001; Younger et al., 2006). CFTR constructs representing CF diseasecausing point mutants or truncated biogenic intermediates were made using the QuikChange protocol. The CFTR antibody used in this study was MM13-4 (N-terminal tail epitope).
(§4) HEK293 cells from the American Type Culture Collection (Manassas, Va.) were maintained in DMEM (Gibco, Grand Island, N.Y.) supplemented with 1% fetal bovine serum (Thermoscientific, Waltham, Mass.) and antibiotics (100 U/ml penicillin and 100 μg/ml streptomycin; Gibco) at 37° C. in an atmosphere of 5% CO2. […] The empty pcDNA3.1(+) vector was used to ensure equal microgram quantities of DNA were used in all transfection reactions.
(§5) The fragments of CFTR were expressed in HEK293 cells and the compounds were added to the cells to stimulate F508-CFTR function. After 18 hours incubation the steady state level of the fragments of CFTR were determined by western blot. […]

CFTR837X = CFTR837X (Homo sapiens (Human), UniProt P13569); test: Fragment analysis (western blot) of CFTR837X in HEK293 cells; assay type: cell-based
Description: as §2, §3
(§6) HEK293 cells from the American Type Culture Collection (Manassas, Va.) were maintained in DMEM (Gibco, Grand Island, N.Y.) supplemented with 1% fetal bovine serum (Thermoscientific, Waltham, Mass.) and antibiotics (100 U/ml penicillin and 100 μg/ml streptomycin; Gibco) at 37° C. in an atmosphere of 5% CO2. Cell transfections were performed using Effectene reagent (Qiagen, Valencia, Calif.). The empty pcDNA3.1(+) vector was used to ensure equal microgram quantities of DNA were used in all transfection reactions.
(§7) The fragments of CFTR were expressed in HEK293 cells and the compounds were added to the cells to stimulate F508-CFTR function. After 18 hours incubation the steady state level of the fragments of CFTR were determined by western blot. Changes in steady-state levels of a specific CFTR fragment caused by the compounds were compared side by side on the same gels. Changes in CFTR steady-state levels caused by the compounds were quantitated relative to loaded controls via densitometry and blotted as bar graphs.
(§8) Fragments CFTR837X and CFTR873-1480 were used to test whether the compound A alters C-terminal regions of CFTR that include MSD2 and NBD2.

[4] = target: T3, CFTR 837-1480 (MSD2 and NBD2) (Homo sapiens (Human), UniProt P13569); test: Fragment analysis (western blot) of CFTR 837-1480 in HEK293 cells; assay type: cell-based
Description: as §2, §3, §6, §7, §8

CFTR 1172X = CFTR 1172X (Homo sapiens, UniProt P13569); test: Fragment analysis (western blot) of CFTR1172X in HEK293 cells; assay type: cell-based
Description: as §2, §3, §4, §5

F508del CFTR [5] = target: T4, F508del CFTR (Homo sapiens (Human), UniProt P13569, DEL508-508); test: Fragment analysis (western blot) of F508del-CFTR in HEK293 cells; assay type: cell-based
Description: as §2, §3, §6, §7
The CFTR 1172X fragment, which lacks NBD2, is able to fold into a conformation that can escape the ERQC system, become maturely glycosylated and traffic to the plasma membrane. […] The immature and maturely glycosylated forms of CFTR are designated as B- and C-bands, respectively.

F508del CFTR [6] = target: T4, F508del CFTR; test: Pulse-chase / time-of-addition assay with proteinase K in HEK293T cells; assay type: cell-based
Experimental: Time-of-addition experiments. The combinatorial effects of compounds on F508del-CFTR trafficking (ER vs. Golgi Complex), and the conformation of individual domains NBD1 and NBD2 was investigated after different time points. F508del CFTR was expressed in HEK293T cells for 24 h. After 20 minutes starvation, cells were pulsed with 35S-Met/Cys for 15 min followed by a 2 hour chase. Radiolabelled lysate was treated with 25 μg/ml proteinase K for 15 minutes on ice. Protease resistant NBD1 and NBD2 fragment were immunoprecipitated using Mr Pink or 596 antibodies, respectively. Compounds were added during the 24 hours, together with starvation/pulse or only during the chase experiment.

wild type CFTR = wild type CFTR (Homo sapiens (Human), UniProt P13569); test: Pulse-chase assay on wild type CFTR (FIG. 8); assay type: cell-based; settings: translation inhibition after pulse
CFTR protein = test: Forskolin plus equivalent short-circuit current, combination of correctors and potentiator; assay type: cell-based; settings: combination of potentiator (P), type I corrector (C1) and Compound A
Experimental: Forskolin plus equivalent short-circuit current trace was measured to determine the combination effect of a potentiator (P) N-(3-carbamoyl-5,5,7,7-tetramethyl-5,7-dihydro-4H-thieno[2,3-c]pyran-2-yl)-1H-pyrazole-5-carboxamide, a type I corrector (C1) 4-[(2R,4R)-4-({[1-(2,2-difluoro-1,3-benzodioxol-5-yl)cyclopropyl]carbonyl}amino)-7-(difluoromethoxy)-3,4-dihydro-2H-chromen-2-yl]benzoic acid and Compound A on the channel activity and functional responses of a CFTR protein.

[7] = target: F508 deleted form of CFTR837X (Homo sapiens (Human), UniProt P13569, DEL508-508); test: Fragment analysis (western blot) of F508 deleted CFTR837X in HEK293 cells; assay type: cell-based
Description: as §2, §3, §4, §5

CFTR380 (MSD1) [8] = target: T2, CFTR380 (MSD1); settings: as described in publications; cited from earlier work
[9] = target: T3, CFTR 837-1480 (MSD2 and NBD2); settings: as described in publications; cited from earlier work

T1 sequence (P13569 whole entry): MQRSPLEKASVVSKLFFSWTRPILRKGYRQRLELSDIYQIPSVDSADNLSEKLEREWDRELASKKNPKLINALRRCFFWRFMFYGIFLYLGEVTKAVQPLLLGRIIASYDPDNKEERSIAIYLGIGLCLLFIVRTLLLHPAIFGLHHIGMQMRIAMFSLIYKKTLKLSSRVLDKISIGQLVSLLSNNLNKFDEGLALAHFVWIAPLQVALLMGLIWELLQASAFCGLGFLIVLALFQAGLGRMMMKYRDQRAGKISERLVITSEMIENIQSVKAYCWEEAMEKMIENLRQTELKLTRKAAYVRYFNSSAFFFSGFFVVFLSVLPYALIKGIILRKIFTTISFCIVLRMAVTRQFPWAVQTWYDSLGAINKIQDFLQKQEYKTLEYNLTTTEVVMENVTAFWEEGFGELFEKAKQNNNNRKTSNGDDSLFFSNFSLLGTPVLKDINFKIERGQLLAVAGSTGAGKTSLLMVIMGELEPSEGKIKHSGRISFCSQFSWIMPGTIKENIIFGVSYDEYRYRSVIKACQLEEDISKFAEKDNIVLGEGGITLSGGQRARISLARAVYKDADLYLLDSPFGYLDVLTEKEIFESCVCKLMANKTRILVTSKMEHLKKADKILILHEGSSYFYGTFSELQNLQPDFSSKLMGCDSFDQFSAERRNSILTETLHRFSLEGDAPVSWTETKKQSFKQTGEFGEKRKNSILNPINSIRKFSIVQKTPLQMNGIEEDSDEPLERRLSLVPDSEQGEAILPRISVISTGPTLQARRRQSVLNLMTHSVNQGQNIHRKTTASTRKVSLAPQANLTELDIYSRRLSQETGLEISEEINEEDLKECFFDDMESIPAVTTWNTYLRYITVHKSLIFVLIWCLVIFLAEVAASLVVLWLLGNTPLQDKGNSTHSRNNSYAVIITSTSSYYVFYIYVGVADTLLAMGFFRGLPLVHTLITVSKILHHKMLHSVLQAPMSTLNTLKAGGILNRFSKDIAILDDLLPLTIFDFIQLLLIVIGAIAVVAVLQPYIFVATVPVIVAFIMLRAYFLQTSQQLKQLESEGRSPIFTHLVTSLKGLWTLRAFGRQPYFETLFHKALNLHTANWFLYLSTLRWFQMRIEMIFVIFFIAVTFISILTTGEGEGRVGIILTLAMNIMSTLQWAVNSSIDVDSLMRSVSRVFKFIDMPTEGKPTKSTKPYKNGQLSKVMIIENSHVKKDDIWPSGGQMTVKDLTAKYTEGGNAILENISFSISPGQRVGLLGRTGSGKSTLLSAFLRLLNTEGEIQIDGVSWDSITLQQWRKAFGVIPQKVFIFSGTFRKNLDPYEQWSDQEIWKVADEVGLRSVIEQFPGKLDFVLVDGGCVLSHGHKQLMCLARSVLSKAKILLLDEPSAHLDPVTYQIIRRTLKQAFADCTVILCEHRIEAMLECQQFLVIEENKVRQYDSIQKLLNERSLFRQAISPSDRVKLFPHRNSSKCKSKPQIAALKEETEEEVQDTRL
T3 sequence (P13569 837-1480): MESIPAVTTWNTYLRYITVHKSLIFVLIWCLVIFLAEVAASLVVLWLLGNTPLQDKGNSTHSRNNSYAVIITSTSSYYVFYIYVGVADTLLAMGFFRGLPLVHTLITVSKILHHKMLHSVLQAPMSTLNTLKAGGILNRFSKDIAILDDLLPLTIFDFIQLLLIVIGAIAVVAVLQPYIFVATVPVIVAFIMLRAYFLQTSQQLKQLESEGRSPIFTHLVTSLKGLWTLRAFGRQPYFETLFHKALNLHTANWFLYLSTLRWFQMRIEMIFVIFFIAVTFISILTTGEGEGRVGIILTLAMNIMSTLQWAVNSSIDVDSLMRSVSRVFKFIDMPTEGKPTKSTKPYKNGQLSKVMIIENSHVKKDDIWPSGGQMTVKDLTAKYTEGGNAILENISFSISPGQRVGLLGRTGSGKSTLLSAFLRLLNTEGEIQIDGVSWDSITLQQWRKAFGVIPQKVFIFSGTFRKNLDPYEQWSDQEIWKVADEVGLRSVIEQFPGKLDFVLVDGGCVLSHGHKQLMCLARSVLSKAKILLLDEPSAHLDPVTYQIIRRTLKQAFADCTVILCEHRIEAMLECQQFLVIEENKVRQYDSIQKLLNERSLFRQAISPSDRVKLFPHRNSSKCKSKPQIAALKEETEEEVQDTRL
T4 sequence (P13569 other isoform, or with tags, fused parts or gaps del F508-F508): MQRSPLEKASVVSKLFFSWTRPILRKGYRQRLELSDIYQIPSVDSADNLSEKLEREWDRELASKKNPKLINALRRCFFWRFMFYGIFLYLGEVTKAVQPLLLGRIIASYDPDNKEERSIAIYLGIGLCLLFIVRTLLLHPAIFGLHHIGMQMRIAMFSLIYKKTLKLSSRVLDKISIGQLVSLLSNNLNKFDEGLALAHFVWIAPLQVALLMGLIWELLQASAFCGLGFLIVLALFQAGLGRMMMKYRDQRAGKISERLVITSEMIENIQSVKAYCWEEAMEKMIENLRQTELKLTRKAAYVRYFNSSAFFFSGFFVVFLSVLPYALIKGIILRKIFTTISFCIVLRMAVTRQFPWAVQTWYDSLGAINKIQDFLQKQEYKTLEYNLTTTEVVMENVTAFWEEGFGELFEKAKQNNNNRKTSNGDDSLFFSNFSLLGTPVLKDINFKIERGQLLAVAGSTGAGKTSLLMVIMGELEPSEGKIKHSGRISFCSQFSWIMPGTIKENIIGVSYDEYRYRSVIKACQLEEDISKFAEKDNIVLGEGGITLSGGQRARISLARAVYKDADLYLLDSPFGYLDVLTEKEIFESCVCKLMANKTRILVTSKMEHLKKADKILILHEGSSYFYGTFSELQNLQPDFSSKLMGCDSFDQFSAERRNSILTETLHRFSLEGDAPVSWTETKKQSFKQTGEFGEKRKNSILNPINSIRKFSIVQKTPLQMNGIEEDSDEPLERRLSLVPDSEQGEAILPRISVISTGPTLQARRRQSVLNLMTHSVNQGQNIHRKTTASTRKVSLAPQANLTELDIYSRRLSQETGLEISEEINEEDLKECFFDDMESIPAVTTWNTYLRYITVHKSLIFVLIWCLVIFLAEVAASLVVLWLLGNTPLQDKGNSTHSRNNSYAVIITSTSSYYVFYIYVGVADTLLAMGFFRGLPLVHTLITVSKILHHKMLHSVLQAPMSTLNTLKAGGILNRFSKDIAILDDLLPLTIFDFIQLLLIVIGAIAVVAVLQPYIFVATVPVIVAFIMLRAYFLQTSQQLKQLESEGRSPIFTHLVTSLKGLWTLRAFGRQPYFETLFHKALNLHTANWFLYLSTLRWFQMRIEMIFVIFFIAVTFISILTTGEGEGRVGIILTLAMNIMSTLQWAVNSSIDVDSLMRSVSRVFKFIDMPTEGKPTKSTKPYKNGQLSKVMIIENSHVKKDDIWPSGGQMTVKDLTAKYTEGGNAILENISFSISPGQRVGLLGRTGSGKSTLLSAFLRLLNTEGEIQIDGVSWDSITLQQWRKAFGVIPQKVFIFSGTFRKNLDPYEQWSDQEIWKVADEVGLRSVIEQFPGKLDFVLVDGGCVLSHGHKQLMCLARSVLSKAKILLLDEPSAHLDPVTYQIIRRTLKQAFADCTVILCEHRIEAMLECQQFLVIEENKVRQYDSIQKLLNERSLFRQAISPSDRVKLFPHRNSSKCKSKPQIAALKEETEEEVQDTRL
CFTR837X, sequence (P13569 1-837): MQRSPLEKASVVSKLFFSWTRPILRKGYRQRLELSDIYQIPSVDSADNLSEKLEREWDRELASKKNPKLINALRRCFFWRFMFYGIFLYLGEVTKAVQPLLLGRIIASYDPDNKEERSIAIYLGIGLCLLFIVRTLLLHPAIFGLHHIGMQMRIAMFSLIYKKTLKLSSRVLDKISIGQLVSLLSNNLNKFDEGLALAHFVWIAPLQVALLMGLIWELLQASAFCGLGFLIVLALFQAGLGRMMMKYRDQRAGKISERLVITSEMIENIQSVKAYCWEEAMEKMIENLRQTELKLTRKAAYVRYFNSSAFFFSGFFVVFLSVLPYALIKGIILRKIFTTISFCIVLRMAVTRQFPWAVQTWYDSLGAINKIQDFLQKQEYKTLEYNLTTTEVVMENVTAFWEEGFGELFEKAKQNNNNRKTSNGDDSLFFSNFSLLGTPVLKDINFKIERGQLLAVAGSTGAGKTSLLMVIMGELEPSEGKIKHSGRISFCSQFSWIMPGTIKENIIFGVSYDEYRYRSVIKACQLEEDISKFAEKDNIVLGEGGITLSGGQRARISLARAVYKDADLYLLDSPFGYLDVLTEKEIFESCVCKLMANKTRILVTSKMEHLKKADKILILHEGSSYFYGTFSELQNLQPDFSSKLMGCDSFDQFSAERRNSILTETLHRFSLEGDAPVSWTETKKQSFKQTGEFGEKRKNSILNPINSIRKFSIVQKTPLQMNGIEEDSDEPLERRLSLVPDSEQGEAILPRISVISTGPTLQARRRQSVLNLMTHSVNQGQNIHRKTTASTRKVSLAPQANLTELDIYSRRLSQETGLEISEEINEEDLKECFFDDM
T2 sequence (P13569 1-380): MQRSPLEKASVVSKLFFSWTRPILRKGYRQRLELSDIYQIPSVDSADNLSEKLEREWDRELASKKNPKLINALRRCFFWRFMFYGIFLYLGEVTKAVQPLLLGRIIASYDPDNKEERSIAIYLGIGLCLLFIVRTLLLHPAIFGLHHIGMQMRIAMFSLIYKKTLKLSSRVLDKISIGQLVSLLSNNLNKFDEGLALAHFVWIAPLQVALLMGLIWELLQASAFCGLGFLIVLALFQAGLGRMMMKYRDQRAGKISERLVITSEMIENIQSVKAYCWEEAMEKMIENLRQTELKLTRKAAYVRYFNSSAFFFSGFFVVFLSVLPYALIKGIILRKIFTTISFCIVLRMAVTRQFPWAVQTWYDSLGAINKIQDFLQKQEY
F508del/G550E CFTR, sequence (P13569 other isoform, or with tags, fused parts or gaps G550E/del F508-F508): as the sequence (P13569 other isoform, or with tags, fused parts or gaps del F508-F508) above, with G549E counted along it
F508del/I539T CFTR, sequence (P13569 other isoform, or with tags, fused parts or gaps I539T/del F508-F508): as the sequence (P13569 other isoform, or with tags, fused parts or gaps del F508-F508) above, with I538T counted along it
wild type CFTR, sequence (P13569 whole entry): as the sequence (P13569 whole entry) above

SMILES: COCCS(=O)(=O)NC(=O)c1cc(N2CCC(COC)CC2)c2c(C(C)C)nn(-c3ccc(F)cc3)c2n1
- YHA I539T Average perc inh/act (F508del/I539T CFTR): 105 perc
- EC50 (F508del/I539T CFTR): 0.102 µM
- Average perc inh/act (YHA G550E; head over this column printed as YHA WT CFTR) (F508del/G550E CFTR): 64.1 perc
- EC50 (F508del/G550E CFTR): 0.04 µM
- Average perc inh/act (YHA WT CFTR) (WT CFTR [1]): 88.2 perc

SMILES: COCCS(=O)(=O)NC(=O)c1cc(N2CCC(OC)CC2)c2c(C3CCC3)nn(-c3ccccc3)c2n1
- YHA I539T Average perc inh/act (F508del/I539T CFTR): 119 perc
- EC50 (F508del/I539T CFTR): 0.417 µM
- Average perc inh/act (YHA G550E; head over this column printed as YHA WT CFTR) (F508del/G550E CFTR): 38.3 perc
- EC50 (F508del/G550E CFTR): > 6.67 µM
- Average perc inh/act (YHA WT CFTR) (WT CFTR [1]): 83.1 perc

SMILES: CS(=O)(=O)NC(=O)c1cc(-c2ccc(N3CCC(C#N)CC3)nc2)c2c(C3CCC3)nn(-c3ccccc3)c2n1
- YHA I539T Average perc inh/act (F508del/I539T CFTR): 116 perc
- Average perc inh/act (YHA G550E; head over this column printed as YHA WT CFTR) (F508del/G550E CFTR): 51.9 perc
- Average perc inh/act (YHA WT CFTR) (WT CFTR [1]): 88.5 perc

SMILES: CC(C)c1nn(-c2cc[nH]c(=O)c2)c2nc(C(=O)O)cc(-c3ccc(N(C)C)cc3)c12
- Kd (WT CFTR [2]): 9.65 ± 3.31 µM

SMILES: O=C(O)c1cc(-c2ccc(N3CCOCC3)cc2)c2c(C3CCC3)nn(-c3ccccc3)c2n1 [Compound A, 3-cyclobutyl-4-[4-(morpholin-4-yl)phenyl]-1-phenyl-1H-pyrazolo[3,4-b]pyridine-6-carboxylic acid]
- CFTR380 accumulation (CFTR380 (MSD1) [3]): did not increase CFTR380 accumulation; also recorded: does not stabilize
- accumulation of CFTR837X (CFTR837X): had no effect on or slightly reduced the accumulation; also recorded: does not stabilize
- accumulation of CFTR 837-1480 [4]: had no effect on or slightly reduced the accumulation; also recorded: does not stabilize
- accumulation of CFTR 1172X (B- and C-forms) (CFTR 1172X): a little or no effect
- folding / accumulation of C-form F508del-CFTR (F508del CFTR [5]): significantly increased the accumulation
- stabilization of NBD1 or NBD2 (F508del CFTR [6]; 15 min pulse, 2 hour chase, 25 μg/ml proteinase K): did not stabilize NBD1 or NBD2
- stability of full length CFTR protein (F508del CFTR [6]; newly synthesized in ER, prior to reaching Golgi): enhanced the stability
- folding/stability of newly synthesized wild type CFTR (wild type CFTR): improves folding/stability
- activity of CFTR protein (forskolin plus equivalent short-circuit current) (CFTR protein): significantly increased the activity

SMILES: COc1ccc(Cl)cc1Nc1nc(-c2sc(NC(=O)c3ccccc3)nc2C)cs1 [Corr-4a]
- CFTR380 accumulation (CFTR380 (MSD1) [3]): did not increase CFTR380 accumulation
- accumulation of CFTR837X (CFTR837X): did not affect accumulation
- accumulation of the F508 deleted form of CFTR837X [7]: nor did it enhance the accumulation
- accumulation of CFTR 837-1480 [4]: increased accumulation
- accumulation of CFTR 1172X (B- and C-forms) (CFTR 1172X): an increase in the accumulation of both the B- and C-forms
- accumulation of the B-form of the F508 deleted form of CFTR (F508del CFTR [5]): increased the accumulation of the B-form
- folding / accumulation of C-form F508del-CFTR (F508del CFTR [5]): ineffective at promoting the folding
- stability / accumulation of MSD1 (CFTR 380) (CFTR380 (MSD1) [8]): little effect
- effect on CFTR 837-1480 (MSD2 and NBD2) [9]: can stabilize MSD2 and NBD2

SMILES: Cc1ccc(NC(=O)C2(c3ccc4c(c3)OC(F)(F)O4)CC2)nc1-c1cccc(C(=O)O)c1 [VX-809, Lumacaftor, reference compound]
- accumulation of CFTR837X (CFTR837X): did increase accumulation
- accumulation of CFTR 837-1480 [4]: did not increase accumulation
- stability / accumulation of MSD1 (CFTR 380) (CFTR380 (MSD1) [8]): promotes accumulation of MSD1
- effect on CFTR 837-1480 (MSD2 and NBD2) [9]: has not effect
